Where “and” joins values, the source holds several entries; their conditions need not be identical. Equal entries are not always repeated. Inconclusive results and toxic doses are left out. Rule for the calls: active = survival T/C of 150% or more; inactive = T/C below 125% in these data.
Test system: P388 leukemia ip, CD2F1 mice, survival T/C
Assay: NCI In Vivo Anticancer Drug Screen. Data for tumor model P388 Leukemia (intraperitoneal) in CD2F1 (CDF1) mice
Details: endpoint: median survival time, higher = longer survival
How it was run: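 Mice carrying the transplanted tumor received test compound or vehicle. Survival was recorded in each group, and the value is the treated-group measurement divided by that of the vehicle-treated control group.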

[1] = dose: 60.0 mg/kg/injection, schedule: Q01DX005 (ip), vehicle: saline with Tween-80
[2] = dose: 120.0 mg/kg/injection, schedule: Q01DX005 (ip), vehicle: saline with Tween-80
[3] = dose: 240.0 mg/kg/injection, schedule: Q01DX005 (ip), vehicle: saline with Tween-80
[4] = dose: 50.0 mg/kg/injection, schedule: Q01DX009 (ip), vehicle: saline with Tween-80
[5] = dose: 50.0 mg/kg/injection, schedule: Q04DX003 (ip), vehicle: saline with Tween-80
[6] = dose: 100.0 mg/kg/injection, schedule: Q04DX003 (ip), vehicle: saline with Tween-80
[7] = dose: 200.0 mg/kg/injection, schedule: Q04DX003 (ip), vehicle: saline with Tween-80
[8] = dose: 12.5 mg/kg/injection, schedule: Q01DX009 (ip), vehicle: saline with Tween-80
[9] = dose: 25.0 mg/kg/injection, schedule: Q01DX009 (ip), vehicle: saline with Tween-80
[10] = dose: 50.0 mg/kg/injection, schedule: Q01DX009 (ip), vehicle: saline
[11] = dose: 100.0 mg/kg/injection, schedule: Q01DX009 (ip), vehicle: saline
[12] = dose: 200.0 mg/kg/injection, schedule: Q01DX009 (ip), vehicle: saline

Measured: T/C

CC(C)CC(NC(=O)OCc1ccccc1)C(=O)O (stereo not given)
inactive: dose: 50.0 mg/kg/injection, schedule: Q01DX005 (ip), vehicle: saline with Tween-80 105 % of control | dose: 100.0 mg/kg/injection, schedule: Q01DX005 (ip), vehicle: saline with Tween-80 101 % of control

COC(=O)[C@]1(CC[N+](=O)[O-])N=C(c2ccccc2)O[C@@H]1C
inactive: [1] 105 % of control | [2] 109 % of control | [3] 113 % of control

COc1ccc(-c2c(C#N)cnc(C)c2C)c(O)c1OC
inactive: dose: 25.0 mg/kg/injection, schedule: Q01DX009 (ip), vehicle: Klucel (hydroxypropylcellulose) (HPC) 96 % of control | dose: 50.0 mg/kg/injection, schedule: Q01DX009 (ip), vehicle: Klucel (hydroxypropylcellulose) (HPC) 92 % of control | dose: 100.0 mg/kg/injection, schedule: Q01DX009 (ip), vehicle: Klucel (hydroxypropylcellulose) (HPC) 96 % of control | dose: 200.0 mg/kg/injection, schedule: Q01DX009 (ip), vehicle: Klucel (hydroxypropylcellulose) (HPC) 90 % of control

Cn1c(C(C)(C)O)cnc1[N+](=O)[O-]
inactive: [4] 103 % of control | dose: 200.0 mg/kg/injection, schedule: Q01DX009 (ip), vehicle: saline with Tween-80 94 % of control

CC(C)COP(=O)(OCC(C)C)OCC(C)C.CC(C)COP(=O)(OCC(C)C)OCC(C)C.CC(C)COP(=O)(OCC(C)C)OCC(C)C.CC(C)COP(=O)(OCC(C)C)OCC(C)C.O.O.[Co+2].[O-][Cl+3]([O-])([O-])O
inactive: dose: 25.0 mg/kg/injection, schedule: Q04DX003 (ip), vehicle: saline with Tween-80 94 % of control | [5] 99 % of control | [6] 114 % of control and 116 % of control

Cc1ccnc(C2=C(O)c3ccccc3C2=O)c1
inactive: dose: 50.0 mg/kg/injection, schedule: Q01DX005 (ip), vehicle: Klucel (hydroxypropylcellulose) (HPC) 102 % of control | dose: 100.0 mg/kg/injection, schedule: Q01DX005 (ip), vehicle: Klucel (hydroxypropylcellulose) (HPC) 90 % of control | dose: 200.0 mg/kg/injection, schedule: Q01DX005 (ip), vehicle: Klucel (hydroxypropylcellulose) (HPC) 91 % of control

Cc1ccc(S(=O)CC2=NC(C)(C)CO2)cc1 (stereo not given)
inactive: dose: 50.0 mg/kg/injection, schedule: Q01DX005 (ip), vehicle: saline 104 % of control | dose: 100.0 mg/kg/injection, schedule: Q01DX005 (ip), vehicle: saline 98 % of control | dose: 200.0 mg/kg/injection, schedule: Q01DX005 (ip), vehicle: saline 103 % of control

O=C1OC2=C(CCCCC2)C(N2CCCCC2)C12SCCCS2 (stereo not given)
inactive: dose: 66.0 mg/kg/injection, schedule: Q04DX003 (ip), vehicle: saline with Tween-80 100 % of control and 96 % of control | [6] 98 % of control and 91 % of control | dose: 150.0 mg/kg/injection, schedule: Q04DX003 (ip), vehicle: saline with Tween-80 110 % of control and 93 % of control | [7] 104 % of control | dose: 400.0 mg/kg/injection, schedule: Q04DX003 (ip), vehicle: saline with Tween-80 93 % of control

O=C(O)c1c[nH]c2cc(O)ccc2c1=O
inactive: [8] 98 % of control | [9] 96 % of control | [4] 103 % of control | [10] 103 % of control | [11] 101 % of control | [12] 95 % of control

BrCCCC1OCCO1
inactive: [1] 100 % of control | [2] 100 % of control | [3] 104 % of control

Oc1c(Cl)cc(Cl)cc1/C=N/Nc1ccc2ccccc2n1
inactive: [5] 89 % of control | [6] 94 % of control | [7] 100 % of control

O=C1c2cccc3cccc(c23)C(=O)N1c1ncn[nH]1
inactive: dose: 6.25 mg/kg/injection, schedule: Q01DX005 (ip), vehicle: saline with Tween-80 87 % of control | dose: 12.5 mg/kg/injection, schedule: Q01DX005 (ip), vehicle: saline with Tween-80 86 % of control | dose: 200.0 mg/kg/injection, schedule: Q01DX005 (ip), vehicle: saline with Tween-80 88 % of control

CCCCCCC(Nc1ncnc(Cl)c1N)C(C)O (stereo not given)
inactive: [8] 97 % of control | [9] 100 % of control

CSC(=S)N=Nc1c(O)[nH]c2ccccc12
inactive: [10] 93 % of control | [11] 96 % of control | [12] 99 % of control

Source: PubChem BioAssay AID330 (DTP/NCI, 2004)
